Literature values in US20050220825A1, “Molecular dispersions of drospirenone” (priority 2004, published 2005).

How the values were obtained:
[1] = drospirenone in micronised form; background statement
[2] = within 30 minutes, hydrochloric acid solution pH about 1.0

## C[C@]12CCC(=O)C=C1[C@@H]1C[C@@H]1[C@H]1[C@@H]3[C@@H]4C[C@@H]4[C@@]4(CCC(=O)O4)[C@@]3(C)CC[C@@H]12 [drospirenone]
[1]
  drospirenone dissolved at 30 minutes after start of dissolution testing: at least 70%
[2]
  drospirenone degraded into its therapeutically inactive isomer: ~50%
